From patent US20250144094A1 (Erasca, Inc., priority 2021, published 2025)

target: Recombinant human ULK1 (1-649) (Homo sapiens (Human), UniProt O75385); assay: ULK1 ADP Glo kinase activity assay, new method (ULKtide peptide substrate); conditions: 25° C., 40 minutes, read-out: ULK1 biochemical IC50
Method in brief: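 Kinase activity was read as ADP production (ADP-Glo, luminescence 30 min after detection reagent) following a 40-min, 25 °C reaction of Sf9-expressed GST-ULK1 (1-649) with ULKtide substrate and ATP. Compounds ran as 12-point series starting at 10 μM; four-parameter curve fitting versus DMSO wells gave IC50.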

Chain of Recombinant human ULK1 (1-649) (O75385 1-649): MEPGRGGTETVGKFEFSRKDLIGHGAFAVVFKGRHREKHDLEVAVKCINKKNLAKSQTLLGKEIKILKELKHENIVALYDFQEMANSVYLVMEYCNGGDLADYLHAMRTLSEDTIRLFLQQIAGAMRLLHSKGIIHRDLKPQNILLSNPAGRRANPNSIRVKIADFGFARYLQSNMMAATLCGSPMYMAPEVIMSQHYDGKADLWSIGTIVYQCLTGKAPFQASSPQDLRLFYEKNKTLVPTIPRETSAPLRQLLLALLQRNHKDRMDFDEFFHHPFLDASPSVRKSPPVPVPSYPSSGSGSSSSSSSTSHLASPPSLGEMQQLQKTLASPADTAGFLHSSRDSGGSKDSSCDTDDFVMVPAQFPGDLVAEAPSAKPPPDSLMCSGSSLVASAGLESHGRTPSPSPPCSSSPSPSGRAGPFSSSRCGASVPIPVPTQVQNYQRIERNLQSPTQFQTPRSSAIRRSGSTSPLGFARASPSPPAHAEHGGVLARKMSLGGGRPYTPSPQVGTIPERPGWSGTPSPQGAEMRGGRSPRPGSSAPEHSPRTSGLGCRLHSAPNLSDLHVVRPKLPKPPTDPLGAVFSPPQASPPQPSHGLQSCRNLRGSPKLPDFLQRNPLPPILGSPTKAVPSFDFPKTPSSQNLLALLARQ

Going from `CCc1cc(C2CCN(CCF)CC2)ccc1Nc1ncc(C(F)(F)F)c(-c2cc3c(s2)C(=O)N(C2CC2)CCS3(=O)=O)n1` [Example 282, 4-cyclopropyl-7-(2-((2-ethyl-4-(1-(2-fluoroethyl)piperidin-4-yl)phenyl)amino)-5-(trifluoromethyl)pyrimidin-4-yl)-3,4-dihydrothieno[2,3-f][1,4]thiazepin-5(2H)-one 1,1-dioxide] to `CCc1cc(C2CCN(CC(F)(F)F)CC2)ccc1Nc1ncc(C(F)(F)F)c(-c2cc3c(s2)C(=O)N(C2CC2)CCS3(=O)=O)n1` [Example 288, 4-cyclopropyl-7-(2-((2-ethyl-4-(1-(2,2,2-trifluoroethyl)piperidin-4-yl)phenyl)amino)-5-(trifluoromethyl)pyrimidin-4-yl)-3,4-dihydrothieno[2,3-f][1,4]thiazepin-5(2H)-one 1,1-dioxide], the IC50 rises from no more than 5 nM to greater than 100 nM.

`CN1CCS(=O)(=O)c2cc(-c3nc(Nc4cc5c(cc4Cl)CNCC5)ncc3C3CC3)sc2C1=O` [Example 283, 7-(2-((7-chloro-1,2,3,4-tetrahydroisoquinolin-6-yl)amino)-5-cyclopropylpyrimidin-4-yl)-4-methyl-3,4-dihydrothieno[2,3-f][1,4]thiazepin-5(2H)-one 1,1-dioxide] and `CN1CCS(=O)(=O)c2cc(-c3nc(Nc4cc5c(cc4Cl)CNCC5)ncc3C(F)(F)F)sc2S1(=O)=O` [Example 302, 7-(2-((7-chloro-1,2,3,4-tetrahydroisoquinolin-6-yl)amino)-5-(trifluoromethyl)pyrimidin-4-yl)-2-methyl-3,4-dihydro-2H-thieno[3,2-f][1,5,2]dithiazepine 1,1,5,5-tetraoxide] cannot be ordered by IC50: no more than 5 nM for the first, no more than 5 nM for the second.

`NC(=O)CN1CCc2cc(Nc3ncc(C(F)(F)F)c(-c4cc5c(s4)C(=O)N(C4COC4)CCS5(=O)=O)n3)c(C3CC3)cc2C1` [Example 284, 2-(7-cyclopropyl-6-((4-(4-(oxetan-3-yl)-1,1-dioxido-5-oxo-2,3,4,5-tetrahydrothieno[2,3-f][1,4]thiazepin-7-yl)-5-(trifluoromethyl)pyrimidin-2-yl)amino)-3,4-dihydroisoquinolin-2(1H)-yl)acetamide] and `N#CCN1CCc2cc(Nc3ncc(C(F)(F)F)c(-c4cc5c(s4)C(=O)N(C4COC4)CCS5(=O)=O)n3)c(C3CC3)cc2C1` [Example 285, 2-(7-cyclopropyl-6-((4-(4-(oxetan-3-yl)-1,1-dioxido-5-oxo-2,3,4,5-tetrahydrothieno[2,3-f][1,4]thiazepin-7-yl)-5-(trifluoromethyl)pyrimidin-2-yl)amino)-3,4-dihydroisoquinolin-2(1H)-yl)acetonitrile] cannot be ordered by IC50: no more than 5 nM for the first, 5 to 10 nM for the second.

Compared with `CC1(CN2CCc3cc(Nc4ncc(C(F)(F)F)c(-c5cc6c(s5)C(=O)N(C5COC5)CCS6(=O)=O)n4)c(C4CC4)cc3C2)COC1` [Example 286, 7-(2-((7-cyclopropyl-2-((3-methyloxetan-3-yl)methyl)-1,2,3,4-tetrahydroisoquinolin-6-yl)amino)-5-(trifluoromethyl)pyrimidin-4-yl)-4-(oxetan-3-yl)-3,4-dihydrothieno[2,3-f][1,4]thiazepin-5(2H)-one 1,1-dioxide], `CC(C)(F)CN1CCc2cc(Nc3ncc(C(F)(F)F)c(-c4cc5c(s4)C(=O)N(C4COC4)CCS5(=O)=O)n3)c(C3CC3)cc2C1` [Example 300, 7-(2-((7-cyclopropyl-2-(2-fluoro-2-methylpropyl)-1,2,3,4-tetrahydroisoquinolin-6-yl)amino)-5-(trifluoromethyl)pyrimidin-4-yl)-4-(oxetan-3-yl)-3,4-dihydrothieno[2,3-f][1,4]thiazepin-5(2H)-one 1,1-dioxide] is higher in IC50: no more than 5 nM for the first, 10 to 50 nM for the second.

First: CC(C)(O)CN1CCc2cc(Nc3ncc(C(F)(F)F)c(-c4cc5c(s4)C(=O)N(C4CC4)CCS5(=O)=O)n3)c(C3CC3)cc2C1 [Example 287, 4-cyclopropyl-7-(2-((7-cyclopropyl-2-(2-hydroxy-2-methylpropyl)-1,2,3,4-tetrahydroisoquinolin-6-yl)amino)-5-(trifluoromethyl)pyrimidin-4-yl)-3,4-dihydrothieno[2,3-f][1,4]thiazepin-5(2H)-one 1,1-dioxide]
Second: CC(C)(F)CN1CCc2cc(Nc3ncc(C(F)(F)F)c(-c4cc5c(s4)C(=O)N(C4CC4)CCS5(=O)=O)n3)c(C3CC3)cc2C1 [Example 299, 4-cyclopropyl-7-(2-((7-cyclopropyl-2-(2-fluoro-2-methylpropyl)-1,2,3,4-tetrahydroisoquinolin-6-yl)amino)-5-(trifluoromethyl)pyrimidin-4-yl)-3,4-dihydrothieno[2,3-f][1,4]thiazepin-5(2H)-one 1,1-dioxide]
The IC50 of the first is lower: no more than 5 nM for the first, 10 to 50 nM for the second.

`O=C1c2sc(-c3nc(Nc4cc5c(cc4C4CC4)CN(C4COC4)CC5)ncc3C(F)(F)F)cc2S(=O)(=O)CCN1C1CC1` [Example 289, 4-cyclopropyl-7-(2-((7-cyclopropyl-2-(oxetan-3-yl)-1,2,3,4-tetrahydroisoquinolin-6-yl)amino)-5-(trifluoromethyl)pyrimidin-4-yl)-3,4-dihydrothieno[2,3-f][1,4]thiazepin-5(2H)-one 1,1-dioxide] and `O=C1c2sc(-c3nc(Nc4cc5c(cc4C4CC4)CN(C4CC4)CC5)ncc3C(F)(F)F)cc2S(=O)(=O)CCN1C1COC1` [Example 301, 7-(2-((2,7-dicyclopropyl-1,2,3,4-tetrahydroisoquinolin-6-yl)amino)-5-(trifluoromethyl)pyrimidin-4-yl)-4-(oxetan-3-yl)-3,4-dihydrothieno[2,3-f][1,4]thiazepin-5(2H)-one 1,1-dioxide] cannot be ordered by IC50: 5 to 10 nM for the first, no more than 5 nM for the second.

`CC(C)(O)CN1CCc2cc(Nc3ncc(C(F)(F)F)c(-c4cc5c(s4)C(=O)N(C4COC4)CCS5(=O)=O)n3)c(C3CC3)cc2C1` [Example 291, 7-(2-((7-cyclopropyl-2-(2-hydroxy-2-methylpropyl)-1,2,3,4-tetrahydroisoquinolin-6-yl)amino)-5-(trifluoromethyl)pyrimidin-4-yl)-4-(oxetan-3-yl)-3,4-dihydrothieno[2,3-f][1,4]thiazepin-5(2H)-one 1,1-dioxide] and `O=C1c2sc(-c3nc(Nc4cc5c(cc4C4CC4)CN(C4COC4)CC5)ncc3C(F)(F)F)cc2S(=O)(=O)CCN1C1COC1` [Example 292, 7-(2-((7-cyclopropyl-2-(oxetan-3-yl)-1,2,3,4-tetrahydroisoquinolin-6-yl)amino)-5-(trifluoromethyl)pyrimidin-4-yl)-4-(oxetan-3-yl)-3,4-dihydrothieno[2,3-f][1,4]thiazepin-5(2H)-one 1,1-dioxide] cannot be ordered by IC50: no more than 5 nM for the first, no more than 5 nM for the second.

`O=C1c2sc(-c3nc(Nc4cc5c(cc4C4CC4)CN(C4CC4)CC5)ncc3C(F)(F)F)cc2S(=O)(=O)CCN1C1CC1` [Example 293, 4-Cyclopropyl-7-(2-((2,7-dicyclopropyl-1,2,3,4-tetrahydroisoquinolin-6-yl)amino)-5-(trifluoromethyl)pyrimidin-4-yl)-3,4-dihydrothieno[2,3-f][1,4]thiazepin-5(2H)-one 1,1-dioxide] and `CC1(C)CC(CN2CCc3cc(Nc4ncc(C(F)(F)F)c(-c5cc6c(s5)C(=O)N(C5CC5)CCS6(=O)=O)n4)c(C4CC4)cc3C2)O1` (stereo not shown) [Example 297, 4-Cyclopropyl-7-(2-((7-cyclopropyl-2-((4,4-dimethyloxetan-2-yl)methyl)-1,2,3,4-tetrahydroisoquinolin-6-yl)amino)-5-(trifluoromethyl)pyrimidin-4-yl)-3,4-dihydrothieno[2,3-f][1,4]thiazepin-5(2H)-one 1,1-dioxide] cannot be ordered by IC50: 5 to 10 nM for the first, no more than 5 nM for the second.

`CCc1cc(N2CCN(C3CC3)CC2)ccc1Nc1ncc(C(F)(F)F)c(-c2cc3c(s2)C(=O)N(C2CC2)CCS3(=O)=O)n1` [Example 294, 4-Cyclopropyl-7-(2-((4-(4-cyclopropylpiperazin-1-yl)-2-ethylphenyl)amino)-5-(trifluoromethyl)pyrimidin-4-yl)-3,4-dihydrothieno[2,3-f][1,4]thiazepin-5(2H)-one 1,1-dioxide] and `CCc1cc(C2CCN(CC(F)F)CC2)ccc1Nc1ncc(C(F)(F)F)c(-c2cc3c(s2)C(=O)N(C2COC2)CCS3(=O)=O)n1` [Example 296, 7-(2-((4-(1-(2,2-difluoroethyl)piperidin-4-yl)-2-ethylphenyl)amino)-5-(trifluoromethyl)pyrimidin-4-yl)-4-(oxetan-3-yl)-3,4-dihydrothieno[2,3-f][1,4]thiazepin-5(2H)-one 1,1-dioxide] cannot be ordered by IC50: no more than 5 nM for the first, 5 to 10 nM for the second.

`O=S1(=O)CCNS(=O)(=O)c2sc(-c3nc(Nc4cc5c(cc4Cl)CNCC5)ncc3C(F)(F)F)cc21` [Example 295, 7-(2-((7-chloro-1,2,3,4-tetrahydroisoquinolin-6-yl)amino)-5-(trifluoromethyl)pyrimidin-4-yl)-3,4-dihydro-2H-thieno[3,2-f][1,5,2]dithiazepine 1,1,5,5-tetraoxide] and `O=C1c2sc(-c3nc(Nc4cc5c(nc4C4CC4)CNCC5)ncc3C(F)(F)F)cc2S(=O)(=O)CCN1C1CC1` [Example 303, 4-cyclopropyl-7-(2-((2-cyclopropyl-5,6,7,8-tetrahydro-1,7-naphthyridin-3-yl)amino)-5-(trifluoromethyl)pyrimidin-4-yl)-3,4-dihydrothieno[2,3-f][1,4]thiazepin-5(2H)-one 1,1-dioxide] cannot be ordered by IC50: no more than 5 nM for the first, no more than 5 nM for the second.

Compared with `CCc1cc(C2CCN(CC(F)(F)F)CC2)ccc1Nc1ncc(C(F)(F)F)c(-c2cc3c(s2)C(=O)N(C2COC2)CCS3(=O)=O)n1` [Example 298, 7-(2-((2-Ethyl-4-(1-(2,2,2-trifluoroethyl)piperidin-4-yl)phenyl)amino)-5-(trifluoromethyl)pyrimidin-4-yl)-4-(oxetan-3-yl)-3,4-dihydrothieno[2,3-f][1,4]thiazepin-5(2H)-one 1,1-dioxide], `O=C1c2sc(-c3nc(Nc4cc5c(nc4C4CC4)CNCC5)ncc3C(F)(F)F)cc2S(=O)(=O)CCN1C1COC1` [Example 304, 7-(2-((2-cyclopropyl-5,6,7,8-tetrahydro-1,7-naphthyridin-3-yl)amino)-5-(trifluoromethyl)pyrimidin-4-yl)-4-(oxetan-3-yl)-3,4-dihydrothieno[2,3-f][1,4]thiazepin-5(2H)-one 1,1-dioxide] is lower in IC50: 10 to 50 nM for the first, no more than 5 nM for the second. The second is the more potent here.
